Read-outs that look alike come from different tables or passages of the source.

The test system of data set [1] is dexamethasone-induced mouse osteoporosis model. The data set can be described thus: Anti-osteoporotic effect, femur micro-CT and histology. Type of data set: in vivo, C57BL/6 mice. To be noted: 4 weeks. The procedure: (§1) To determine the anabolic effect of orally administered TRP/LDA/DA-DM on GC-induced osteoporosis, 9-week-old female C57BL/6 mice were randomly divided into 6 groups (n=10 per group): Control group (normal) (SC injection of normal saline once daily); Control group (DEX) (SC injection of 0.022 mg/kg DEX once daily); TRP-SC (0.02) (SC injection of 0.02 mg/kg TRP dissolved in physiological saline containing 0.022 mg/kg DEX once daily); TRP-oral (0.4) (SC injection of 0.022 mg/kg DEX dissolved in water with 0.4 mg/kg TRP orally once daily); RP (1:5:7)-15 (0.4) (once daily oral administration of TRP (1:5:7)-15 equivalent to 0.4 mg/kg TRP with SC injection of 0.022 mg/kg DEX); and TRP (1:5:7)-15 (0.8) (once daily oral administration of TRP (1:5:7)-15 equivalent to 0.8 mg/kg TRP with SC injection of 0.022 mg/kg DEX). Blood samples were collected for biochemical analysis 4 weeks after treatment.
In addition, femurs from 10 mice in each group were collected and fixed in 4% paraformaldehyde for bone density and histomorphometric analysis. The trabecular bone microstructure of the left femur was investigated using a Quantum GX micro-computed tomography (micro-CT) imaging system (PerkinElmer, Hopkinton, MA, USA) located at the Korea Institute of Basic Science (Gwangju, Korea). X-ray source settings included a voltage of 90 kV and a current of 88 uA, with a field of view of 10 mm (voxel size, 20 μm; scan time, 4 min). Three-dimensional (3D) images were obtained with 3D Viewer, an existing software in Quantum GX, and the resolution was set to 4.5 μm. After scanning, the structural parameters of the trabecular bone were analyzed using Analyze 12.0 software (Analyze Direct, Overland Park, KS, USA).
For histological observations, formalin-fixed femurs were […] in 10% ethylenediaminetetraacetic acid (EDTA) and dehydrated by passing through a graded ethanol series. Calcified femurs were then embedded in paraffin wax, cut into 5-μm-thick sections, and stained with hematoxylin and eosin (H&E). Histological sections were observed under an optical microscope (Bx41; Olympus, Tokyo, Japan), and photographs were taken focusing on the central portion of the growth plate.

Data set [2] shares this test system. The data set can be described thus: Serum bone formation and resorption markers and calcium. Type of data set: in vivo, C57BL/6 mice. The procedure:
as §1
After the final treatment once daily, serum samples were collected from mouse whole blood by centrifugation at 2000×g for 20 minutes. Then, the serum levels of osteocalcin, procollagen I N-terminal pro-peptide (PINP), and C-terminal cross-linked telopeptide of type I collagen (CTx) in each sample were determined according to the manufacturer's instructions using the Mouse Osteocalcin ELISA kit (LifeSpan BioSciences, Inc., Seattle, WA, USA), Rat/Mouse PINP EIA kit (Immunodiagnostic Systems Holdings Ltd., Tyne & Wear, UK), and RatLaps™ CTx-I EIA (Immunodiagnostic Systems Holdings Ltd.) was used to confirm each. In addition, the serum calcium level was confirmed through a colorimetric assay at 560 nm (Sigma-Aldrich).

Data set [3] in a line: Oral absorption: plasma TRP pharmacokinetics. Type of data set: in vivo, SD mice. To be noted: SD, mouse; for AUC(0-inf) / AUC(0-t) / Cmax / Tmax / half-life: single dose, n=5. The method, then:
The oral absorption of TRP/LDA/DA-DM in mice was evaluated by determining the effectiveness of electrostatic complexes of TRP with LDA and DA and micellar formulations using DM. After fasting overnight, SD mice were orally administered 400 μL of TRP-Oral (1.6) (1.6 mg/kg TRP dissolved in water) or TRP (1:5:7)-15 (1.6) (equivalent to 1.6 mg/kg TRP). In addition, animals were injected subcutaneously with 200 μL of TRP-SC (0.04) (0.04 mg/kg TRP dissolved in physiological saline) to evaluate the relative oral bioavailability. Blood samples (250 μL) were collected in heparinized tubes (lithium heparin) from a cannulated femoral vein at specified time points (0, 0.167, 0.5, 1, 1.5, 2, 3, 4, 6 hours). Finally, plasma was separated by centrifugation (2500×g, 15 min, 4° C.) and stored at […] until analysis.
The plasma drug concentration of each sample was determined by UPLC-MS/MS. To construct a standard calibration curve, 180 μL of blank plasma was transferred to a tube, and then 10 μL of TRP at concentrations of 100, 50, 25, 10, 5, 2.5, 1, and 0 (blank) ng/ml was added to the blank plasma. To measure plasma drug concentrations after drug administration, 180 μL of mouse plasma samples at different time points were transferred to another tube, and then 10 μL hPTH (1-38) aqueous solution (100 ng/ml) (as an internal standard [IS]) was added to the TRP and blank plasma or drug-administered plasma samples. The samples were then precipitated by adding 200 μL acetonitrile containing 5% ammonium hydroxide. The precipitated sample was further diluted with 1 mL of water and centrifuged at 4° C. for 15 min at 4,000 rpm. The supernatant was extracted using the solid phase extraction (SPE) method and an Oasis® HLB uElution 96-well plate (Waters Corporation, Milford, MA, USA). Briefly, a 96-well plate was conditioned with 200 μL of methanol and then equilibrated with 200 μL of water. Four 350 μL aliquots of the supernatant were then added to each Oasis HLB uElution well. After the addition of standards or samples, the wells were washed with 200 μL of water containing 5% methanol. Then, TRP and IS were eluted with 25 μL of acetonitrile:water:trifluoroethanol:trifluoroacetic acid (60:34:5:1, v/v/v/v) mixture in two sequential aliquots. After further dilution of the eluate with 50 μL of water, 10 μL was injected into a UPLC system (Waters ACQUITY UPLC, Waters Corporation) equipped with an ACQUITY UPLC Peptide BEH C18 column (2.1×50 mm, 1.7 μm, 300 Å, Waters Corporation). The sample was placed at a low temperature of 6° C., and the column temperature was maintained at 60° C. during the analysis. Mobile phase A is composed of 0.5% (v/v) formic acid in water, and mobile phase B is composed of acetonitrile. TRP and IS were eluted at a gradient flow rate of 0.3 mL/min, where mobile phase A was equal to 85% (initial), 85% (0.8 min), 70% (1.2 min), 70% (2.2 min), 65% (2.7 min), 10% (3.0 min), 10% (4.0 min), 85% (5 min), and 85% (5 min). For ionization, a mass spectrometer (Xevo™ TO-S; Waters Corporation) was used in positive ion multiple reaction monitoring mode with electrospray voltage, source temperature, desolvation temperature, and desolvation gas flow rate of 3.0 kV, 150° C., 500° C., and 800 L/h, respectively. Quantification was performed with the transition of m/z 589.40→656.40 at 45 V cone voltage and 13 eV collision energy for TRP and m/z 744.20→855.50 at 20 V cone voltage and 20 eV collision energy for IS.

Data set [4] is described as follows: Particle size, PDI and zeta potential (dynamic light scattering) and TEM. To be noted: dispersed in deionized water, 25° C. Type of data set: physicochemical. The method, then:
The characterization of the secondary structure of RP/LDA/DA-DM was confirmed by […] of TRP, TRP-DM, TRP/LDA/DA, and TRP/LDA/DA-DM, using 10 µM of the complex in water at 20° C. Measurements were made in the 180 to 260 nm range on a JASCO spectropolarimeter (Jasco Inc., Easton, MD, USA) using a 10 mm cuvette. All spectra were background-corrected and calculated in units of average residual ellipticity. This represents an average of 10 scan values. The optimized TRP/LDA/DA-DM [i.e., TRP (1:5:7)-15] was also characterized for average particle size, polydispersity index (PDI), and zeta potential using a dynamic light scattering analyzer (Malvern Zetasizer Nano ZS90; Malvern Instruments, Malvern, UK) at 25° C. TRP/LDA/DA-DM was dispersed in deionized water and sonicated for 1 min to minimize multi-scattering effects. In addition, morphological evaluation of the TRP formulation was performed by transmission electron microscopy (TEM). The diluted dispersion was placed on a copper grid, excess fluid was removed using filter paper, and negative staining was performed with a 2% aqueous solution of phosphortungstic acid. The prepared grids were observed by high-resolution TEM (HRTEM; JEM-200; JEOL, Tokyo, Japan).

The mark [5] stands for this setting: SC 0.022 mg/kg DEX once daily, 4 weeks.
The mark [6] stands for this setting: SC 0.02 mg/kg TRP once daily, 4 weeks.

With `C[C@@H]1C[C@H]2[C@@H]3CCC4=CC(=O)C=C[C@]4(C)[C@@]3(F)[C@@H](O)C[C@]2(C)[C@@]1(O)C(=O)CO` [DEX, dexamethasone], in data set [1] (SC 0.022 mg/kg DEX once daily), the “BMD of the total femur” value was determined as 123 ± 7.92 mg/mL, the “SMI change compared to the control (normal) group” value is on record as −21.1% and the “Tb.Th change compared to the control (normal) group” value was −7.98%. In data set [2] (setting [5]), the “serum CTx increase compared to the control (normal) group” value worked out at 48.9% and the “serum PINP reduction compared to the control (normal) group” value came out at 26.0%.

Regarding `CC[C@H](C)[C@H](NC(=O)[C@H](CCC(=O)O)NC(=O)[C@H](CO)NC(=O)[C@@H](NC(=O)[C@@H](N)CO)C(C)C)C(=O)N[C@@H](CCC(N)=O)C(=O)N[C@@H](CC(C)C)C(=O)N[C@@H](CCSC)C(=O)N[C@@H](Cc1cnc[nH]1)C(=O)N[C@@H](CC(N)=O)C(=O)N[C@@H](CC(C)C)C(=O)NCC(=O)N[C@@H](CCCCN)C(=O)N[C@@H](Cc1cnc[nH]1)C(=O)N[C@@H](CC(C)C)C(=O)N[C@@H](CC(N)=O)C(=O)N[C@@H](CO)C(=O)N[C@@H](CCSC)C(=O)N[C@@H](CCC(=O)O)C(=O)N[C@@H](CCCN=C(N)N)C(=O)N[C@H](C(=O)N[C@@H](CCC(=O)O)C(=O)N[C@@H](Cc1c[nH]c2ccccc12)C(=O)N[C@@H](CC(C)C)C(=O)N[C@@H](CCCN=C(N)N)C(=O)N[C@@H](CCCCN)C(=O)N[C@@H](CCCCN)C(=O)N[C@@H](CC(C)C)C(=O)N[C@@H](CCC(N)=O)C(=O)N[C@@H](CC(=O)O)C(=O)N[C@H](C(=O)N[C@@H](Cc1cnc[nH]1)C(=O)N[C@@H](CC(N)=O)C(=O)N[C@@H](Cc1ccccc1)C(=O)O)C(C)C)C(C)C` [TRP, Human PTH (1-34) acetate], the “trabecular bone microarchitecture, 3D micro-CT image of the femur” value in data set [1] (SC 0.02 or oral 0.4 and 0.8 mg/kg TRP, versus control (DEX) and TRP-Oral (0.4)) was “denser trabecular bone microarchitecture”. In addition, the “trabecular bone, H&E-stained histology of distal femora” value in data set [1] (SC 0.02 or oral 0.4 or 0.8 mg/kg TRP, versus control (DEX) and TRP-Oral (0.4)) is “increased structural integrity and denser trabecular bone microarchitecture”. Further, in data set [1] (SC 0.02 mg/kg TRP once daily), the “BMD higher than the DEX group” value is recorded as 29.4%, the “BV/TV higher than the control (DEX) group” value is reported as 13.2%, the “Tb. Sp lower than the control (DEX) group” value is 17.4% and the “Tb.N higher than the control (DEX) group” value amounted to 2.8%. In addition, the “Tb.Th higher than the control (DEX) group” value in data set [1] (SC 0.02 mg/kg TRP once daily) came to 45.2%. Moreover, the “BMD higher than the control (DEX) group” value in data set [1] (oral 0.4 mg/kg TRP once daily) is given as “did not produce a significant improvement”. In data set [3] (Oral, 1.6 mg/kg TRP, relative to SC 0.04 mg/kg), this compound returned a bioavailability of 0.559 ± 0.293%. In addition, in data set [3] (Oral, 1.6 mg/kg TRP), the AUC(0-inf) worked out at 0.296 ± 0.0189 ng·h/mL, the area under the curve AUC(0-t) was determined as 0.135 ± 0.0704 ng·h/mL, the concentration peaked (Cmax) at 0.155 ± 0.0572 ng/mL and the time to peak (Tmax) came to 78 ± 16.2 min. The half-life in data set [3] (Oral, 1.6 mg/kg TRP) is 43.2 ± 10.8 min. Also, in data set [3] (SC, 0.04 mg/kg TRP (reference), read-out: Relative bioavailability), the bioavailability turned out to be 100%. In data set [3] (SC, 0.04 mg/kg TRP), the area under the curve AUC(0-inf) was 0.752 ± 0.0269 ng·h/mL, the exposure AUC(0-t) was 0.601 ± 0.12 ng·h/mL, the peak concentration (Cmax) was 0.807 ± 0.135 ng/mL and the time to peak (Tmax) was 30 min. The compound further showed a half-life in data set [3] (SC, 0.04 mg/kg TRP) of 24 min. Besides, in data set [2] (setting [6]), the “PINP higher compared to the control (DEX) group” value was 1.19 times, the “serum osteocalcin level higher than TRP-oral (0.4) group” value is on record as 9.68%, the “serum osteocalcin level higher than control group (DEX)” value was found to be 28.2% and the “serum osteocalcin level higher than control group (normal)” value was determined as 18.2%. Further, the “serum calcium levels, maximum increase compared to the control (normal) group” value in data set [2] (SC 0.02 mg/kg TRP, at 6 hours, day 28) was determined as 21.4%. Besides, the “PINP secretion increase compared to DEX-treated mice only” value in data set [2] (oral 0.4 mg/kg TRP once daily, 4 weeks) is listed as “not recovered”.

Take `CCCCCCCCCCCCO[C@@H]1O[C@H](CO)[C@@H](O[C@H]2O[C@H](CO)[C@@H](O)[C@H](O)[C@H]2O)[C@H](O)[C@H]1O` [DM, n-dodecyl-β-D-maltoside]: in data set [4], the Particle size is listed as 7.43 nm, the “Polydispersity index (PDI)” value is listed as 0.045 and the Zeta potential is −0.260 mV.

Values taken from patent publication US20250367266A1, “ORAL PHARMACEUTICAL COMPOSITION FOR PREVENTION OR TREATMENT OF OSTEOPOROSIS CONTAINING TERIPARATIDE AND METHOD FOR PREPARATION THEREOF” (ICURE BNP CO., LTD., priority 2022, published 2025).
